In data set [1] the target is T1, NS3/NS2B protease of the Dengue virus (DENV PR) (Dengue virus type 2, UniProt P29990).
T1 construct: the NS3/NS2B protease of the Dengue virus (DENV PR)
Briefly: Fluorometric DENV NS2B/NS3 protease assay (Boc-Gly-Arg-Arg-AMC). Type of data set: biochemical. The conditions noted are these: [S] = 100 µM (Boc-Gly-Arg-Arg-AMC).

The target of data set [2] is T2, rhodesain (Trypanosoma brucei rhodesiense, UniProt Q95PM0).
T2 construct: made in house; host or cells: Pichia pastoris
T2 sequence (Q95PM0 entry or part of it): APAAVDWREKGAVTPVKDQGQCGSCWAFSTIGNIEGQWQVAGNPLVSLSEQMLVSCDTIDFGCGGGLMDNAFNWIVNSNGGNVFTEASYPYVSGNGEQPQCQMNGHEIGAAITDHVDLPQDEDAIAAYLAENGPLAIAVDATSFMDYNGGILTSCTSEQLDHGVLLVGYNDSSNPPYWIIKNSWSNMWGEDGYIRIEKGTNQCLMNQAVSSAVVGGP
Briefly: biochemical. In kind it is biochemical. The conditions noted are these: read-out: Rhod. Ki.

The target in another data set is T3, cathepsin B (Homo sapiens, UniProt P07858).
T3 construct: purchased Calbiochem, Merck Millipore
Put plainly: Fluorometric cathepsin B inhibition assay (Cbz-Phe-Arg-AMC). In kind it is biochemical. The conditions noted are these: read-out: Cath. B Ki.

Data set [3] deals with T. b. brucei 449 cell line. Put plainly: T. b. brucei cell survival assay (ATPlite). In kind it is cell-based. The conditions noted are these: Trypanosoma brucei, 48 h; read-out: EC50 antitrypanosomal activity. The procedure:
Benzyl ester 2 was tested for its antitrypanosomal activity as described previously.
5. T. b. brucei cell survival assay
Toxicity of 2 against trypanosomes ( T. b. brucei 449 cell line) were determined via an ATPlite assay as described previously[13–15] using the cellular ATP levels as a proxy for cell viability. 2 (5 mM stock solution in DMSO) was first diluted 1:3 in medium, followed by a 1:10 dilution step in a microplate and ten subsequent 1:2 dilution steps. 90 μL HMI-9 medium containing 2500 cells/mL were distributed in 96-well microplates (PerkinElmer). 10 μL of the 1:2 dilution step preparations of the tested compounds were added to the 90 μL cell suspension leading to final concentrations from 16.67 μM to 32.55 nM in the microplates. As a negative control, addition of 0.3% of DMSO corresponding to the highest DMSO concentration added by compound application was used. 10% DMSO was used as a positive control, since at this DMSO concentration, all cells die. […] 50 μL of ATPlite 1 step solution (PerkinElmer) was added to each well of the microplate and luminescence measured at room temperature with an Infinite® M200 PRO plate reader (Tecan Trading AG). The measured values were plotted against the compound concentrations top yield the dose-response curve. The EC 50 values were calculated using GraFit version 5.013 (Erithacus Software Ltd.).

Data set [4] concerns the target T4, cathepsin L (Homo sapiens, UniProt P07711). Put plainly: Dilution assay (reversibility), cathepsin L. The conditions noted are these: 5×IC50, 15 min incubation, 50-fold dilution.
Description: Then, the mixture was diluted by 50-fold to yield a final inhibitor concentration of 10% of the IC50 concentration.
Fluorometric assays for cathepsin B and cathepsin L (Calbiochem, Merck
Millipore) were performed as described previously.[7,8] Cbz-Phe-Arg-AMC was used as substrate
(final conc.: 100 μM for cathepsin B, 6.5 μM for cathepsin L) in assay buffer (50 mM Tris, pH 6.5,
Recombinantly expressed rhodesain (0.9 mg/mL) or cathepsin L (Calbiochem, Merck Millipore) were
diluted 1:100 in enzyme buffer (rhodesain: 50 mM sodium acetate, pH 5.5, 5 mM EDTA, 200 mM
NaCl and 2 mM DTT; cathepsin L: 50 mM Tris, pH 6.5, 5 mM EDTA, 200 mM NaCl and 2 mM DTT)
and preincubated for 1 h at room temperature. 54 μL of the respective enzyme solution was treated
enzyme-inhibitor reactions were incubated for 15 min at room temperature to ensure complete
inhibition. 1.2 μL of each reaction mixture was diluted with 57.3 μL of the respective assay buffer
(rhodesain: 50 mM sodium acetate, pH 5.5, 5 mM EDTA, 200 mM NaCl, 0.005% Brij; cathepsin L:
Phe-Arg-AMC in DMSO (final conc.: 10 μM for rhodesain, 6.5 μM for cathepsin L) and monitored
with a Tecan Infinite M200 Pro plate reader (λ ex: 380 nm/λ em: 460 nm).
The target of data set [5] is T2, rhodesain. Briefly: Hydrolysis assay UV-Vis (ester hydrolysis by rhodesain). Type of data set: biochemical. The procedure:
Since the esters and the free carboxylic acid have different UV-Vis characteristics, we recorded time-dependent absorbance spectra at 400 nm (Figure 9).
Figure 9 Kinetic analysis of the ester hydrolysis by rhodesain. […]
Hydrolysis assay – UV-Vis:
To a solution of rhodesain (10 μg/mL) in 197.5 μL reaction buffer (50 mM sodium acetate, pH 5.5,
(20 mM) was added and the absorbance was monitored for 2 h at 25 °C with a Tecan Spark 10M (λabs: […]

Data set [6] addresses T4, cathepsin L. Put plainly: Fluorometric cathepsin L inhibition assay (Cbz-Phe-Arg-AMC). Type of data set: biochemical. Set-up: purchased Calbiochem, Merck Millipore.

For orientation: pIC50 means −log10 of the IC50, conventionally taken in molar units. Low values mean a high IC50, high ones a low IC50. One may read the pKi as −log10 of the Ki, conventionally taken in molar units. As usually defined, the pEC50 is the negative decadic logarithm of the EC50, by convention in mol/L.

pEC50, pIC50, pKi: −log10 of the molar value. “Also recorded” adds a separate entry of the source. Like-named read-outs stand apart in the source and are kept apart here.

T4 sequence (P07711 114-333): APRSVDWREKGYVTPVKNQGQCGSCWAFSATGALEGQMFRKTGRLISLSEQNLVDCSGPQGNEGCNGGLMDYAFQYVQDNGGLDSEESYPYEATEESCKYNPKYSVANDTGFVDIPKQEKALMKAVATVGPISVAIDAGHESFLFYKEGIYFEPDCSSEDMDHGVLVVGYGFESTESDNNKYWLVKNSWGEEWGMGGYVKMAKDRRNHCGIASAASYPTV
T1 sequence (P29990 1346-1475): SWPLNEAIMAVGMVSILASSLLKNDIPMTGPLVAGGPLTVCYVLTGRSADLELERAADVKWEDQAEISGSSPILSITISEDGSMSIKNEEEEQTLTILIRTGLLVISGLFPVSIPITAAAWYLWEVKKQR
T1 sequence (P29990 1476-1653): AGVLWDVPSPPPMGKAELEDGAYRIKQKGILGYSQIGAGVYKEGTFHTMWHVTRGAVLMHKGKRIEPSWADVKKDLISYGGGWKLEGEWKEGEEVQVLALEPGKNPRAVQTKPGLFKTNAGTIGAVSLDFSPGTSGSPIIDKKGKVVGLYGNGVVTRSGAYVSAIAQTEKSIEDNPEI

Consider `CC(C)C[C@H](NC(=O)[C@H](Cc1ccccc1)NC1=C(C#N)C(=O)c2ccccc2C1=O)C(=O)OCc1ccccc1` [Compound 2], for which, in data set [1], the pIC50 is 4.39. In addition, the pKi at rhodesain [2] is 6.74; at cathepsin B, 5.72; on cathepsin L [6] (final complex, Dixon fit of vS vs [I], read-out: Cath. L Ki^* Method 2), 7.27; on cathepsin L [6] (final high-affinity complex, Ki/(1+k3/k4), read-out: Cath. L Ki^* Method 1), 7.92; at cathepsin L [6] (initial complex, Dixon fit of vi vs [I], read-out: Cath. L Ki Method 2), 6.52; at cathepsin L [6] (initial non-covalent complex, from kobs vs [I], read-out: Cath. L Ki Method 1), 6.80. The pKi at cathepsin L [6] (reversible, time-dependent inhibition, final high-affinity complex, mean of method 1 and method 2, read-out: Cath. L Ki^*) is 7.48. The pEC50 in data set [3] is 6.92. Besides, the “reactivation of enzyme activity after dilution, cathepsin L” value at cathepsin L [4] is reported as “full reactivation; also recorded: nearly fully recovered”. Also, the half-life at 250 µM on rhodesain [5] (Trypanosoma brucei rhodesiense, rhodesain enzyme solution, pH 5.5, absorbance at 400 nm vs time, read-out: t1/2 of ester hydrolysis by rhodesain) worked out at 3.41 min. In addition, the “turnover curve of absorbance at 400 nm vs. time with rhodesain” value on rhodesain [5] (monitored for 2 h at 25 °C) is “hyperbolic turnover curves”. In addition, the “k3, cathepsin L” value on cathepsin L [6] (Method 1) turned out to be 0.0148 s⁻¹. The “k4, cathepsin L” value at cathepsin L [6] (Method 1) came to 0.0012 s⁻¹. In addition, the “half-life t1/2 of final complex, cathepsin L” value at cathepsin L [6] (calculated by 0.693/k4) is “around 10 min”. In addition, the “Cath. L k3” value on cathepsin L [6] (second inhibition step, forward rate) was 0.0148 s⁻¹. In addition, the “Cath. L k4” value at cathepsin L [6] (second inhibition step, off-rate) came to 0.0012 s⁻¹.

Values taken from PMC7248907, “Naphthoquinones as Covalent Reversible Inhibitors of Cysteine Proteases—Studies on Inhibition Mechanism and Kinetics” (Molecules, 2020).
